These results are taken from patent US11560373B2, “Compounds and their use as PDE4 activators” (Mironid Limited, priority 2018, dated 2023).

Holding throughout (type): biochemical
One assay concerns the target T1, PDE4D5 (Homo sapiens, UniProt Q08499).
T1 construct: stably expressed the full-length human PDE4D5, PDE4B1 and PDE4A4 long isoforms; made in house
Briefly: PDE assay, [3H]cAMP hydrolysis by HEK-PDE4D5 cell lysate cytosol fraction. To be noted: 30 μM; mean % increase in counts over basal activity. On the procedure:
(§1) HEK 293 cells were transfected with pDEST™ PDE4 expression vectors using Lipofectamine LTX/Plus reagent (Invitrogen) as outlined by the manufacturer and clonal isolates expanded to obtain cell lines that stably expressed the full-length human PDE4D5, PDE4B1 and PDE4A4 long isoforms and the full length human PDE4B2 short isoform. These were called the HEK-PDE4D5, HEK-PDE4B1, HEK-PDE4A4 and HEK-PDE4B2 cell lines, respectively.
(§2) HEK-PDE4D5 cells were seeded out in 100 mm plates and incubated at 37° C. in an atmosphere of 5% CO2, 95% air. Cell lysates were prepared using KHEM buffer [50 mM KCl, 10 mM EGTA, 50 mM HEPES (pH 7.2), 1.92 mM MgCl2].
(§3) To prepare the cell lysates, the 100 mm plates containing the cells were placed on ice and washed with ice-cold PBS (phosphate buffered saline, pH 7.4). KHEM buffer (500 μl) was added to the cells. Cells were then scraped off the plate and triturated using a needle (BD Microlance™ 0.8, 40 mm). The lysed cells were then centrifuged at 2000 rpm for 10 minutes to remove cell debris and the supernatant (cell lysate containing recombinant PDE4D5) was transferred to a fresh tube and kept on ice.
(§4) The cell lysate containing recombinant PDE4D5 was transferred into a centrifuge tube and placed into an ultracentrifuge (BECKMAN COULTER) and spun at high speed (100,000 g) for 30 minutes at 4° C. The cytosol fraction was then collected and its protein amount determined using a BCA protein assay.
(§5) PDE assays were performed in thin walled V-bottomed 96-well plates. The assays were performed at a final concentration of 10 mM Tris/5 mM MgCl2 plus PDE4D5 cell lysate cytosol fraction, containing over-expressed PDE4D5, with and without test compound. The lysate/compound mix were incubated together for 15 min at room temperature on an orbital shaker prior to addition of [^3H] cAMP (final concentration 1 μM [^3H] cAMP; Perkin Elmer) to a final volume of 50 μl per reaction. The reactions were then incubated for 10 minutes at 30° C., terminated by heating for 2 min at 95° C. and allowed to cool. Snake venom (12.5 μl of 1 mg/ml; Crotalus atrox, Sigma) was then added and the plates were agitated and incubated for a further 15 minutes at 30° C. Dowex ion exchange resin (Sigma, chloride form, 200-400 mesh; 200 μl; prepared as a 1:1 Dowex: water stock, thoroughly re-suspended and diluted 2:1 with ethanol) was then added to each well and the plates incubated for 15 min at room temperature on an orbital shaker ensuring sufficient agitation for resin suspension (550 RPM). The reaction mixture was then transferred to a 96 well filter plate (Millipore; […] pore size) and filtered into a receiving 96-well plate to remove the dowex suspension. 30 μL of the filtered solution was then transferred to the wells of an Opti-plate (Perkin Elmer) 96 well assay plate and 120 μl of Microscint 40 scintillation fluid was added. The plate was then placed on an orbital shaker for 10 min at high speed (900 RPM) to mix the sample with scintillation fluid prior to quantitation using a plate based scintillation counter (Top-Count).
(§6) The % increase in counts in the presence of test compound at a particular concentration indicates the % increase in enzyme activity at that concentration.

In another assay the target is T2, PDE4B2 (Homo sapiens, UniProt Q07343).
T2 construct: the full length human PDE4B2 short isoform; made in house
T2 sequence (Q07343 1-564 isoform Q07343-2): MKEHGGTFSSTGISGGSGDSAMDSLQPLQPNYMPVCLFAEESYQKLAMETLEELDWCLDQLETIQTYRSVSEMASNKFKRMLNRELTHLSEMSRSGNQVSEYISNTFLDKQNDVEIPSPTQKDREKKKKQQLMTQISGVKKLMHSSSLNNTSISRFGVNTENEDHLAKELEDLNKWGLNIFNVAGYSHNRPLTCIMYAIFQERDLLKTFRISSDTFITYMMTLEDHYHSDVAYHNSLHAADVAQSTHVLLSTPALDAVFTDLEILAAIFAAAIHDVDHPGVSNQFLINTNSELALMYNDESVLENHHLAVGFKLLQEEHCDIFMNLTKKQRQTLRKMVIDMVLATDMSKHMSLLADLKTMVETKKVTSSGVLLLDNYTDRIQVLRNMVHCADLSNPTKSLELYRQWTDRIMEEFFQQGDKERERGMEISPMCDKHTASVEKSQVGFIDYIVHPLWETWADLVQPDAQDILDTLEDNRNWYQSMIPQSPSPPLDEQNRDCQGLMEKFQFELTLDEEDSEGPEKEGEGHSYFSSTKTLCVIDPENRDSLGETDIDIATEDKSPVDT
Briefly: PDE assay, [3H]cAMP hydrolysis by HEK-PDE4B2 cell lysate cytosol fraction (short form). As to conditions: mean % increase in counts over basal activity. As for the experimental part: as §1, §2, §3, §4, §5, §6

In the next assay the target is T3, PDE4B1 (Homo sapiens, UniProt Q07343).
T3 construct: stably expressed the full-length human PDE4D5, PDE4B1 and PDE4A4 long isoforms; made in house
T3 sequence (Q07343 whole entry, canonical isoform): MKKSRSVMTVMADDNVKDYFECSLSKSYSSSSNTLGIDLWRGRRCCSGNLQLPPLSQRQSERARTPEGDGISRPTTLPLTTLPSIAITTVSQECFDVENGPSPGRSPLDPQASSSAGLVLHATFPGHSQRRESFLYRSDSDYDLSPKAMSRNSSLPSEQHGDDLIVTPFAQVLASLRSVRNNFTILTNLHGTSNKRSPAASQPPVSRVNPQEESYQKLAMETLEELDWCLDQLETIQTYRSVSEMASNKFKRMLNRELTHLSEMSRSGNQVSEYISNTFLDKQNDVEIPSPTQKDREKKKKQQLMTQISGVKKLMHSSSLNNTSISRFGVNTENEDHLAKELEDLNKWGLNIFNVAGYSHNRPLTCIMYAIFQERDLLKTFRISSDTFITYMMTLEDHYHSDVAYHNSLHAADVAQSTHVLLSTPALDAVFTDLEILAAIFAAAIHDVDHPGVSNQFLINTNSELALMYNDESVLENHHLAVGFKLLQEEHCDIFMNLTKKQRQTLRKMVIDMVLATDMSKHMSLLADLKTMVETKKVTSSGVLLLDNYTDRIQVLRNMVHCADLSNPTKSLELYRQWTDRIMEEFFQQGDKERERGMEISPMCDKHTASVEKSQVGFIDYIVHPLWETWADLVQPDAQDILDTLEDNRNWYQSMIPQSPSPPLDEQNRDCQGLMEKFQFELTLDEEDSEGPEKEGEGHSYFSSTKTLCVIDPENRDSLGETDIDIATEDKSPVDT
Briefly: PDE assay, [3H]cAMP hydrolysis by HEK-PDE4B1 cell lysate cytosol fraction. As to conditions: mean % increase in counts over basal activity.

Another assay addresses T4, PDE4A4 (Homo sapiens, UniProt P27815).
T4 construct: stably expressed the full-length human PDE4D5, PDE4B1 and PDE4A4 long isoforms; made in house
Briefly: PDE assay, [3H]cAMP hydrolysis by HEK-PDE4A4 cell lysate cytosol fraction. As to conditions: mean % increase in counts over basal activity.

T1 sequence (Q08499 1-745 isoform Q08499-6): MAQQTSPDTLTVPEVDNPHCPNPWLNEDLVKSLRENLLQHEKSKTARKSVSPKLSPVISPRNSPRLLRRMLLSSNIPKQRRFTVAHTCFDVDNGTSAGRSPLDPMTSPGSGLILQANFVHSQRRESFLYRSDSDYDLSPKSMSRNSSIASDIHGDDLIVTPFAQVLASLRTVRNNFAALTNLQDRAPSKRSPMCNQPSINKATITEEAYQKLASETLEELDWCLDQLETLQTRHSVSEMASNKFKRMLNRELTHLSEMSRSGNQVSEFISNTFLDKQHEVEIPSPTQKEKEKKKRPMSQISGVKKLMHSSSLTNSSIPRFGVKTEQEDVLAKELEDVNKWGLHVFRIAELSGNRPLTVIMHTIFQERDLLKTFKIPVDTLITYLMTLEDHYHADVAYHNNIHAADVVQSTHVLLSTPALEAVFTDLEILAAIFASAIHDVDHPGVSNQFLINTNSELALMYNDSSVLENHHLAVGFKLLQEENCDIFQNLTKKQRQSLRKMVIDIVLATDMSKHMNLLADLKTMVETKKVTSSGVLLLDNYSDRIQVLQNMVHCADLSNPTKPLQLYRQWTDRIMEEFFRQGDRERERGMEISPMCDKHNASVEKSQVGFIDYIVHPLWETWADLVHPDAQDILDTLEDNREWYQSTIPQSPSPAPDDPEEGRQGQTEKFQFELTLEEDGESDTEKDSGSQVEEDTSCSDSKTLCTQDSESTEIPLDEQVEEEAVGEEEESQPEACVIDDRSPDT
T4 sequence (P27815 whole entry, canonical isoform): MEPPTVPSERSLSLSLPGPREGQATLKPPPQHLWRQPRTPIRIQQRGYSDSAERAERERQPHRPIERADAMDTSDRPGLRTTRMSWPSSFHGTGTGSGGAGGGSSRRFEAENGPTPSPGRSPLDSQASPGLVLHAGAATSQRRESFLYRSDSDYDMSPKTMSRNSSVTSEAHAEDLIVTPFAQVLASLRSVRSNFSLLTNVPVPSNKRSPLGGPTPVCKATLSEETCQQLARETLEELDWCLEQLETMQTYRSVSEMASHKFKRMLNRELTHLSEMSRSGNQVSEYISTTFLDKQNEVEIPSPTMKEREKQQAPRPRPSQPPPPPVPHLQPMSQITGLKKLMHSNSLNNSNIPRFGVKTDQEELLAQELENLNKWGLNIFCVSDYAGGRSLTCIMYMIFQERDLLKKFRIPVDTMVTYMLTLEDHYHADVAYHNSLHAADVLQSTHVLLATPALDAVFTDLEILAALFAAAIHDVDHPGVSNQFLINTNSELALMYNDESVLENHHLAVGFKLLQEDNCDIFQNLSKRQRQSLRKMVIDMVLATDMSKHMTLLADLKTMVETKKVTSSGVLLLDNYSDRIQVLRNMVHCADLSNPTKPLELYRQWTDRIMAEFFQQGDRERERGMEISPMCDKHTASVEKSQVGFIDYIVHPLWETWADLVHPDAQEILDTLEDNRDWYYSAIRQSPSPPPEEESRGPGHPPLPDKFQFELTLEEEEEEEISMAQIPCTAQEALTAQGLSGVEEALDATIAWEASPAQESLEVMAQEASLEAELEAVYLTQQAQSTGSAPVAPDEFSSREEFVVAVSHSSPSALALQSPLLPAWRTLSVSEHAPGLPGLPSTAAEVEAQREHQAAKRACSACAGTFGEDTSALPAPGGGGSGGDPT

At PDE4D5, `CCn1nc(-c2ccc(Cl)c(OCCOC)c2)nc1CC(=O)NCc1cc(Cl)cc(Cl)c1` [Example 33, 2-{3-[4-Chloro-3-(2-methoxyethoxy)phenyl]-1-ethyl-1H-1,2,4-triazol-5-yl}-N-[(3,5-dichlorophenyl)methyl]acetamide] yielded an activation at 30 µM of 82.3%. Also, the “% increase in PDE4B2 activity at 30 μM” value on PDE4B2 is given as −9.4%.

In turn, `CCn1nc(-c2ccc(Cl)c(OC(C)C)c2)nc1CC(=O)N[C@H]1CCOc2ccc(Cl)cc21` [Example 40, N-[(4S)-6-Chloro-3,4-dihydro-2H-1-benzopyran-4-yl]-2-[3-(4-chloro-3-isopropyloxyphenyl)-1-ethyl-1H-1,2,4-triazol-5-yl]acetamide] gave an activation at 30 µM on PDE4D5 of 48.5%. Further, at PDE4B2, the “% increase in PDE4B2 activity at 30 μM” value worked out at 1.6%. On to `CCn1nc(-c2ccc(Cl)c(F)c2)nc1CC(=O)NCc1cccc(F)c1` [Example 1, 2-[3-(4-Chloro-3-fluorophenyl)-1-ethyl-1H-1,2,4-triazol-5-yl]-N-(3-fluorobenzyl) acetamide], for which, on PDE4B1, the “% increase in PDE4B1 activity at 30 μM” value is 79.1%. In turn, `COCCn1nc(-c2ccc(Cl)c(F)c2)nc1CC(=O)NCc1cc(Cl)cc(Cl)c1` [Example 22, 2-[3-(4-Chloro-3-fluorophenyl)-1-(2-methoxyethyl)-1H-1,2,4-triazol-5-yl]-N-[(3,5-dichlorophenyl)methyl]acetamide] yielded an activation at 30 µM on PDE4D5 of 99.9%. In addition, the “% increase in PDE4A4 activity at 30 μM” value at PDE4A4 was determined as 92.5%. Besides, the “% increase in PDE4B2 activity at 30 μM” value on PDE4B2 is reported as −2.9%.

At PDE4D5, `CCn1nc(-c2ccc(Cl)c(OC)c2)nc1CC(=O)NCc1cc(Cl)cc(Cl)c1` [Example 29, 2-[3-(4-Chloro-3-methoxyphenyl)-1-ethyl-1H-1,2,4-triazol-5-yl]-N-[(3,5-dichlorophenyl)methyl]acetamide] came in with an activation at 30 µM of 104%. In addition, the “% increase in PDE4B2 activity at 30 μM” value at PDE4B2 amounted to 3.4%. At PDE4D5, `CCn1nc(-c2ccc(Cl)c(F)c2)nc1CC(=O)NCc1cccc2cn[nH]c12` [Example 4, 2-[3-(4-Chloro-3-fluorophenyl)-1-ethyl-1H-1,2,4-triazol-5-yl]-N-[(1H-indazol-7-yl)methyl]acetamide] yielded an activation at 30 µM of 32.2%.

As for `O=C(Cc1nc(-c2ccc(Cl)c(F)c2)nn1CC1CC1)N[C@H]1CCOc2ccc(Cl)cc21` [Example 78, N-[(4S)-6-Chloro-3,4-dihydro-2H-1-benzopyran-4-yl]-2-[3-(4-chloro-3-fluorophenyl)-1-(cyclopropylmethyl)-1H-1,2,4-triazol-5-yl]acetamide], the activation at 30 µM on PDE4D5 came out at 79.1%. Regarding `CCn1nc(-c2ccc(Cl)c(OC(C)C)c2)nc1CC(=O)N[C@H]1CCc2ncccc21` [Example 42, 2-[3(4-Chloro-3-isopropyloxyphenyl)-1-ethyl-1H-1,2,4-triazol-5-yl]-N-[(5S)-5H,6H,7H-cyclopenta[b]pyridin-5-yl]acetamide], on PDE4D5, the activation at 30 µM came to 40%. The compound `CCn1nc(-c2ccc(Cl)c(F)c2)nc1CC(=O)NCc1cc(C)cc(C)c1` [Example 12, 2-[3-(4-Chloro-3-fluorophenyl)-1-ethyl-1H-1,2,4-triazol-5-yl]-N-[(3,5-dimethylphenyl)methyl]acetamide] yielded an activation at 30 µM on PDE4D5 of 71.6%. For `Cc1cc(CNC(=O)Cc2nc(-c3ccc(Cl)c(F)c3)nn2CC2CC2)cc(C)n1` [Example 26, 2-[3-(4-Chloro-3-fluorophenyl)-1-(cyclopropylmethyl)-1H-1,2,4-triazol-5-yl]-N-[(2,6-dimethylpyridin-4-yl)methyl]acetamide], on PDE4D5, the activation at 30 µM was 87.5%. For the compound `COC(=O)Cn1nc(-c2ccc(Cl)c(F)c2)nc1CC(=O)NCc1cc(Cl)cc(Cl)c1` [Example 54, Methyl 2-[3-(4-chloro-3-fluorophenyl)-5-({[(3,5-dichlorophenyl)methyl]carbamoyl}methyl)-1H-1,2,4-triazol-1-yl]acetate], at PDE4D5, the activation at 30 µM stood at 97.2%. In the case of `CCn1nc(-c2ccc(Cl)c(OC(C)C)c2)nc1CC(=O)NCc1cc(Cl)cc(Cl)c1` [Example 34, 2-[3-(4-Chloro-3-isopropyloxyphenyl)-1-ethyl-1H-1,2,4-triazol-5-yl]-N-[(3,5-dichlorophenyl)methyl]acetamide], the activation at 30 µM at PDE4D5 was 108%. Moreover, at PDE4A4, the “% increase in PDE4A4 activity at 30 μM” value was 75.5%. On PDE4B2, the “% increase in PDE4B2 activity at 30 μM” value is given as −4.4%. For the compound `Cn1nc(-c2ccc(Cl)c(F)c2)nc1CC(=O)NCc1ccc2[nH]ncc2c1` [Example 21, 2-[3-(4-Chloro-3-fluorophenyl)-1-methyl-1H-1,2,4-triazol-5-yl]-N-[(1H-indazol-5-yl)methyl]acetamide], at PDE4D5, the activation at 30 µM stood at 60.8%. Still for that read-out and setting: to `CCn1nc(-c2ccc(Cl)c(F)c2)nc1C(F)(F)C(=O)NCc1ccc2[nH]c(C)nc2c1` [Example 52, 2-[3-(4-Chloro-3-fluorophenyl)-1-ethyl-1H-1,2,4-triazol-5-yl]-2,2-difluoro-N-[(2-methyl-1H-1,3-benzimidazol-5-yl)methyl]acetamide] belongs 73.8%. Turning to `CCn1nc(-c2ccc(Cl)c(F)c2)nc1CC(=O)NCc1cccc(OC)c1` [Example 2, 2-[3-(4-Chloro-3-fluorophenyl)-1-ethyl-1H-1,2,4-triazol-5-yl]-N-(3-methoxybenzyl) acetamide], the “% increase in PDE4B1 activity at 30 μM” value at PDE4B1 came out at 99.4%. The compound `CCn1nc(-c2ccc(Cl)c(F)c2)nc1CC(=O)Nc1cc(C)on1` [Example 6, 2-[3-(4-Chloro-3-fluorophenyl)-1-ethyl-1H-1,2,4-triazol-5-yl]-N-(5-methyl-1,2-oxazol-3-yl)acetamide] came in with an activation at 30 µM at PDE4D5 of 38.5%. `Cn1nc(-c2ccc(Cl)c(F)c2)nc1CC(=O)NCc1cc(Cl)cc(Cl)c1` [Example 18, 2-[3-(4-Chloro-3-fluorophenyl)-1-methyl-1H-1,2,4-triazol-5-yl]-N-[(3,5-dichlorophenyl)methyl]acetamide] returned an activation at 30 µM at PDE4D5 of 77.8%. Turning to `CCn1nc(-c2ccc(Cl)c(F)c2)nc1CC(=O)NCc1cc(C)cc(Cl)c1` [Example 10, 2-[3-(4-Chloro-3-fluorophenyl)-1-ethyl-1H-1,2,4-triazol-5-yl]-N-[(3-chloro-5-methylphenyl)methyl]acetamide], the activation at 30 µM on PDE4D5 is 136%. For `O=C(Cc1nc(-c2ccc(Cl)c(F)c2)nn1CCO)NCc1cc(Cl)cc(Cl)c1` [Example 23, 2-[3-(4-Chloro-3-fluorophenyl)-1-(2-hydroxyethyl)-1H-1,2,4-triazol-5-yl]-N-[(3,5-dichlorophenyl)methyl]acetamide], the activation at 30 µM on PDE4D5 was 53.8%.
